The results in this text go back to patent US11166960B2, “Modified release preparations containing oxcarbazepine and derivatives thereof” (Supernus Pharmaceuticals, Inc., priority 2006, dated 2021).

Series [1] can be described thus: Solubility of oxcarbazepine in the presence of excipients. The series is classed as physicochemical. The procedure:
The solubility of oxcarbazepine in the presence of excipients was evaluated as follows: Excipients were dissolved in phosphate buffer to make solutions with concentrations shown in Table 3. One gram of oxcarbazepine was then mixed with 19 gm of the excipient solution. The mixture was rocked overnight at room temperature and then filtered using 0.22 μm filter. The filtrates were analyzed by HPLC.

Experiment in series [2]: as above
The series is classed as physicochemical. The note with it: de-ionized water, thermodynamic from solid.

What is called solubility is how much of the substance goes into solution per volume.

Where two headings read alike, the source gives them in different places.

`NC(=O)N1c2ccccc2CC(=O)c2ccccc21` [Oxcarbazepine]: the solubility in series [1] (Kollidon 17 1% w/w in phosphate buffer) came out at 171.7 µg/mL; in series [1] (aqueous with cosolvent or surfactant or cyclodextrin, thermodynamic from solid, Hydroxypropyl betacyclodextrin (HBCD) 5% w/w in phosphate buffer, read-out: Solubility) it was 1020 µg/mL; in series [1] (aqueous with cosolvent or surfactant or cyclodextrin, thermodynamic from solid, SLS/Stearic Acid/PEG400 5, 1, 1% w/w in phosphate buffer, read-out: Solubility) it was 3280 µg/mL; in series [1] (phosphate buffer (control, no excipient), aqueous buffer, thermodynamic from solid, Phosphate Buffer Control, room temperature overnight, read-out: Solubility) it was 401 µg/mL; in series [1] (phosphate buffer with 1% w/w Cremophor RH40, aqueous with cosolvent or surfactant or cyclodextrin, thermodynamic from solid, Cremophor RH40 1% w/w in phosphate buffer, read-out: Solubility), 314 µg/mL; in series [1] (phosphate buffer with 1% w/w SLS and 1% w/w HBCD, aqueous with cosolvent or surfactant or cyclodextrin, thermodynamic from solid, SLS/HBCD 1, 1% w/w in phosphate buffer, read-out: Solubility), 349 µg/mL. Besides, the solubility in series [1] (phosphate buffer with 5% w/w SLS and 1% w/w PEG400, aqueous with cosolvent or surfactant or cyclodextrin, thermodynamic from solid, SLS/Polyethylene Glycol 400 (PEG400) 5, 1% w/w in phosphate buffer, read-out: Solubility) amounted to 3050 µg/mL; in series [1] (phosphate buffer with 5% w/w docusate sodium, aqueous with cosolvent or surfactant or cyclodextrin, thermodynamic from solid, Docusate Sodium 5% w/w in phosphate buffer, read-out: Solubility), 6550 µg/mL; in series [1] (phosphate buffer with 5% w/w sodium lauryl sulfate (SLS), aqueous with cosolvent or surfactant or cyclodextrin, thermodynamic from solid, Sodium Lauryl Sulfate (SLS) 5% w/w in phosphate buffer, read-out: Solubility), 4110 µg/mL; in series [2], 273 µg/mL.
